Assay results from ChEMBL document CHEMBL1129724, “Inhibitory potency of lithocholic acid analogs and other bile acids on glucuronosyltransferase activity in a colon cancer cell line” (Bioorg Med Chem Lett, 1996).

Test system: HT-29
Assay: Inhibition of glucuronosyltransferase activity in the human colon cancer cell line HT-29 at 5 uM concentration
Format: cell-based
Parameters: scale not given: the % may be the effect or the level left

Row | SMILES | Activity [%]
1 | C[C@H](CCC(=O)O)[C@H]1CC[C@H]2[C@@H]3[C@@H](O)C[C@@H]4C[C@H](O)CC[C@]4(C)[C@H]3CC[C@]12C | 73.3
2 | CC(CCC(=O)O)[C@H]1CC[C@H]2[C@@H]3C(=O)C[C@@H]4C[C@H](O)CC[C@]4(C)[C@H]3CC[C@]12C (some centres not stated) | 51.1
3 | CC(CC(O)C(=O)O)[C@H]1CC[C@H]2[C@@H]3CC[C@@H]4C[C@H](O)CC[C@]4(C)[C@H]3CC[C@]12C (single isomer, unassigned) | 55.4
4 | CC(CCCOP(=O)(O)O)[C@H]1CC[C@H]2[C@@H]3CC[C@@H]4C[C@H](O)CC[C@]4(C)[C@H]3CC[C@]12C (some centres not stated) | 74
5 | CC(CC(O)C(=O)O)[C@H]1CC[C@H]2[C@@H]3CC[C@@H]4C[C@H](O)CC[C@]4(C)[C@H]3CC[C@]12C (mixture of isomers) | 40
6 | CC(CCC(=O)O)[C@H]1CC[C@H]2[C@@H]3[C@H](O)[C@H](O)[C@@H]4C[C@H](O)CC[C@]4(C)[C@H]3CC[C@]12C (some centres not stated) | 73.9
7 | CC(CCC(=O)O)[C@H]1CC[C@H]2[C@@H]3C(=O)C[C@@H]4C[C@H](O)CC[C@]4(C)[C@H]3CC(=O)[C@]12C (some centres not stated) | 100
8 | CC(CCC(=O)O)C1CCC2C3C=CC4C[C@@H](O)CCC4(C)C3CCC12C (some centres not stated) | 39.1
9 | CC(CCC(=O)O)[C@H]1CC[C@H]2[C@@H]3CC(=O)[C@@H]4C[C@H](O)CC[C@]4(C)[C@H]3CC[C@]12C (some centres not stated) | 28.1
10 | CC(CCC(=O)O)[C@H]1CC[C@H]2[C@@H]3[C@@H](O)[C@H](O)[C@@H]4C[C@H](O)CC[C@]4(C)[C@H]3CC[C@]12C (some centres not stated) | 78.5
11 | C[C@H](CCC(=O)O)[C@H]1CC[C@H]2[C@@H]3CCC4CC(O)CC[C@]4(C)[C@H]3CC[C@]12C (single isomer, unassigned) | 46.8
12 | C[C@@H](CCC(=O)O)[C@H]1CC[C@H]2[C@@H]3[C@H](O)[C@@H](O)[C@@H]4C[C@H](O)CC[C@]4(C)[C@H]3CC[C@]12C | 100
13 | CC(CC(O)C(=O)O)[C@H]1CC[C@H]2[C@@H]3CC[C@@H]4C[C@H](O)CC[C@]4(C)[C@H]3CC[C@]12C (stereo in doubt) | 34.9
14 | C[C@H](CCC(=O)O)[C@H]1CC[C@H]2[C@@H]3[C@H](O)C[C@@H]4C[C@H](O)CC[C@]4(C)[C@H]3CC[C@]12C | 38.4
15 | C[C@H](CCC(=O)O)[C@H]1CC[C@H]2[C@@H]3CC[C@@H]4CCCC[C@]4(C)[C@H]3CC[C@]12C | 92
16 | CC(CCCCC(=O)O)[C@H]1CC[C@H]2[C@@H]3CC[C@@H]4C[C@H](O)CC[C@]4(C)[C@H]3CC[C@]12C (some centres not stated) | 41.9
17 | CC(CCCO)[C@H]1CC[C@H]2[C@@H]3CC[C@@H]4C[C@H](O)CC[C@]4(C)[C@H]3CC[C@]12C (some centres not stated) | 72.8
18 | CC(CCC(C(=O)O)C(=O)O)[C@H]1CC[C@H]2[C@@H]3CC[C@@H]4C[C@H](O)CC[C@]4(C)[C@H]3CC[C@]12C (some centres not stated) | 74.3
19 | CC(CCC(=O)O)[C@H]1CC[C@H]2[C@@H]3CC[C@@H]4C[C@H](O)CC[C@]4(C)[C@H]3CC(=O)[C@]12C (some centres not stated) | 36.1
20 | C[C@H](CCC(=O)O)[C@H]1CC[C@H]2[C@@H]3CC[C@@H]4C[C@H](O)CC[C@]4(C)[C@H]3CC[C@]12C | 25.3
21 | CC(CCC(=O)O)[C@H]1CC[C@H]2[C@@H]3CC[C@@H]4C[C@@H](O)CC[C@]4(C)[C@H]3CC[C@]12C (some centres not stated) | 86.9
22 | CC(CCC(=O)O)[C@H]1CC[C@H]2[C@@H]3CC[C@@H]4CC(=O)CC[C@]4(C)[C@H]3CC[C@]12C (some centres not stated) | 46
23 | C[C@H](CCC(=O)O)[C@H]1CC[C@H]2[C@@H]3CC[C@@H]4C[C@H](O)CCC4(C)[C@H]3CC(O)[C@]12C (single isomer, unassigned) | 48
24 | CC(CCC(=O)O)[C@H]1CC[C@H]2[C@@H]3[C@H](O)C[C@@H]4C[C@H](O)CC[C@]4(C)[C@H]3C[C@@H](O)[C@]12C (some centres not stated) | 98.3
25 | CC(CCC(=O)O)C1CCC2C3C=CC4C[C@H](O)CCC4(C)C3CCC12C (some centres not stated) | 41.4
26 | C[C@H](CCC(=O)O)[C@H]1CC[C@H]2[C@@H]3CC(O)[C@@H]4C[C@H](O)CC[C@]4(C)[C@H]3CC[C@]12C (single isomer, unassigned) | 75.2
27 | CC(CCC(=O)O)[C@H]1CC[C@H]2[C@@H]3CC[C@@H]4C[C@@H](O)CC[C@]4(C)[C@H]3C[C@@H](O)[C@]12C (some centres not stated) | 46.4
